The source of these data is patent US12162848B2, “Inhibitors of protein tyrosine phosphatase, compositions, and methods of use” (BRISTOL-MYERS SQUIBB COMPANY, priority 2022, dated 2024).

By IC50 is commonly meant the concentration that inhibits the measured activity by half. For orientation: EC50 means the concentration at which the effect is half-maximal.

The target of assay [1] is T1, PTPN2 enzyme (Homo sapiens, UniProt P17706).
T1 sequence (P17706 1-415): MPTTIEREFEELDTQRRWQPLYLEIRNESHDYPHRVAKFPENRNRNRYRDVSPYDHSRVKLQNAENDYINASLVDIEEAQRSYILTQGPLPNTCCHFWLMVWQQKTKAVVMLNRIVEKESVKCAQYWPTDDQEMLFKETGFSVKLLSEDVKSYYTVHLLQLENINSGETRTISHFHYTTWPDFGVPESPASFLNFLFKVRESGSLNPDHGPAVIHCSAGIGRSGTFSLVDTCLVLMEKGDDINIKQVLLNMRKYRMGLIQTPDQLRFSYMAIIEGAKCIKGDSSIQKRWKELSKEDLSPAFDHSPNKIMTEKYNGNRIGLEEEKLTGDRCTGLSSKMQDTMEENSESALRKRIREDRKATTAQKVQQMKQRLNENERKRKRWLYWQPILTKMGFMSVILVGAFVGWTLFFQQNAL
Briefly: PhosphoSens PTPN2 biochemical assay. As to conditions: substrate AQT0264 20 μM, room temperature; read-out: PTPN2 BCHEM IC50. The method, then:
A PhosphoSens® kinase assay was performed as described by the vendor (AssayQuant Technologies, Marlborough, MA). Briefly, 1000×solutions of compounds were prepared in DMSO via serial dilution of the 10 mM DMSO stocks using 3-fold intervals in a 384-well reagent plate. 50 nL of the compound dilution series was then added to the corresponding wells of a 384-well assay plate. […] of 1.25×substrate (AQT0264) in 1× assay buffer (50 mM HEPES pH 7.5, 500 μM EGTA, […] MgCl2, 0.01% Brij-35, 1% Glycerol, 1 mM DTT, and 0.2 mg/mL BSA) was transferred to each well of the assay plate to achieve a final substrate concentration of 20 μM. Finally, […] of 5×PTPN2 enzyme stock was added to each well of the assay plate for a final enzyme concentration of […]. Reaction progress curves were collected by sampling fluorescence intensity at the excitation wavelength 360 nm (λex360) and emission wavelength 480 nm (λem480) every 71 seconds for one hour using a Synergy H4 plate reader (BioTek Instruments/Agilent Technologies, Winooski, VT) at room temperature.

Assay [2] has as its system phosphorylated STAT1 protein levels in B16-F10 cells. Put plainly: Phospho-STAT1 (Tyr701) HTRF assay in IFN-gamma treated B16-F10 cells. In kind it is cell-based. As to conditions: mouse IFN-gamma 100 ng/mL, 1 hour, read-out: pSTAT1 HTRF B16 EC50. The method, then:
B16-F10 cells (ATCC, Manassas, VA, #CRL-6475) were cultured in DMEM growth medium (ThermoFisher Scientific, Waltham, MA, #11995-040) supplemented with 10% heat inactivated FBS (ThermoFisher Scientific, #16140-071) and 1% pen/strep (ThermoFisher Scientific, #15140-122). The cells were seeded into a white opaque 384-well tissue culture treated microplate (PerkinElmer, Waltham, MA, #6007688) at a density of 10,000 cells/well in 20 uL total volume and incubated overnight at 37 C and 5% CO2. 30 nL of compounds dissolved in DMSO were then transferred from a source plate into target wells with the Echo650 acoustic liquid handler (Beckman Coulter, Indianapolis, IN). Negative control wells received 30 nL of DMSO only (0.15% final concentration). Plates were returned to the incubator for 1 hour and then cells treated with either 5 uL of growth medium or 5 uL of growth medium containing 500 ng/mL of recombinant mouse IFN-gamma protein (R&D Systems, Minneapolis, MN, #485-MI/CF, 100 ng/mL final concentration) using the Assist automated pipetting platform (INTEGRA Biosciences, Hudson, NH). Plates were incubated at 37 C for 1 hour and assayed for phosphorylated STAT1 protein levels with the phospho-STAT1 (Tyr701) HTRF kit (Cisbio, Bedford, MA, #63ADK026PEH) according to manufacturer's instructions.
On the technique in general: TR-FRET usually uses a lanthanide donor and a delayed reading to cut background.

Assay [3] deals with B16-F10 cells. Put plainly: Cell proliferation assay (CellTiter-Glo) in IFN-gamma treated B16-F10 cells. In kind it is cell-based. Particulars: 120 h, mouse IFN-gamma 10 ng/mL, read-out: PTPN2 Prolif 5d B16F10 EC50. The protocol: B16-F10 cells (ATCC, Manassas, VA, #CRL-6475) were cultured in DMEM growth medium (ThermoFisher Scientific, Waltham, MA, #11995-040) supplemented with 10% heat inactivated FBS (ThermoFisher Scientific, #16140-071) and 1% pen/strep (ThermoFisher Scientific, #15140-122). The cells were seeded into two white opaque 384-well tissue culture treated microplates (PerkinElmer, Waltham, MA, #6007688) at a density of 100 cells/well in 20 uL total volume and incubated overnight at 37 C and 5% CO2. 30 nL of compounds dissolved in DMSO were then transferred from a source plate into target wells with the Echo650 acoustic liquid handler (Beckman Coulter, Indianapolis, IN). Negative control wells received 30 nL of DMSO only (0.15% final concentration). Plates were returned to the incubator for 1 hour and then cells treated with either 5 uL of growth medium or 5 uL of growth medium containing 50 ng/mL of recombinant mouse IFN-gamma protein (R&D Systems, Minneapolis, MN, #485-MI/CF, 10 ng/mL final concentration) using the Assist automated pipetting platform (INTEGRA Biosciences, Hudson, NH). Plates were incubated at 37 C for 4 days and cell proliferation assayed with the CellTiter-Glo reagent (Promega, Madison, WI, #G7573, 25 uL per well). […] Off-target compound mediated cytotoxicity was identified by checking for growth inhibition in the absence of IFNg.
On the technique in general: In ATP-based viability assays light output follows the ATP content of the culture.

As to `O=C1CN(c2c(O)cc(C3CCCNC3)cc2F)S(=O)(=O)N1` (stereo not drawn) [EXAMPLE 1, 5-(2-fluoro-6-hydroxy-4-(piperidin-3-yl)phenyl)-1,2,5-thiadiazolidin-3-one 1,1-dioxide], the half-inhibitory concentration (IC50) in assay [1] is 0.119 µM. Further, the EC50 came to 1.28 µM in assay [2] and 0.882 µM in assay [3].
With `CCCCC1CCN(Cc2cc(O)c(N3CC(=O)NS3(=O)=O)c(F)c2)CC1` [EXAMPLE 57, 5-[4-[(4-butyl-1-piperidyl)methyl]-2-fluoro-6-hydroxy-phenyl]-1,1-dioxo-1,2,5-thiadiazolidin-3-one], in assay [1], the half-maximal inhibitory concentration (IC50) was 0.381 µM. Further, the EC50 in assay [2] worked out at 10.9 µM.
Consider `CC(=O)N1CCC[C@@H](NCc2cc(O)c(N3CC(=O)NS3(=O)=O)c(F)c2)C1` [EXAMPLE 68, 5-[4-[[[(3R)-1-acetyl-3-piperidyl]amino]methyl]-2-fluoro-6-hydroxy-phenyl]-1,1-dioxo-1,2,5-thiadiazolidin-3-one], for which the half-inhibitory concentration (IC50) in assay [1] amounted to 0.032 µM. Further, the EC50 in assay [2] was determined as 6.68 µM.
As for `O=C1CN(c2c(O)cc(CN[C@@H]3CCCN(S(=O)(=O)c4cccc(F)c4)C3)cc2F)S(=O)(=O)N1` [EXAMPLE 69, 5-[2-fluoro-4-[[[(3R)-1-(3-fluorophenyl)sulfonyl-3-piperidyl]amino]methyl]-6-hydroxy-phenyl]-1,1-dioxo-1,2,5-thiadiazolidin-3-one], the IC50 in assay [1] turned out to be 0.088 µM. Also, in assay [2], the EC50 is no less than 15 µM.
Regarding `O=C1CN(c2c(O)cc(CN[C@H]3CCCN(S(=O)(=O)c4cccc(F)c4)C3)cc2F)S(=O)(=O)N1` [EXAMPLE 70, 5-[2-fluoro-4-[[[(3S)-1-(3-fluorophenyl)sulfonyl-3-piperidyl]amino]methyl]-6-hydroxy-phenyl]-1,1-dioxo-1,2,5-thiadiazolidin-3-one], in assay [1], the IC50 is 0.03 µM. Further, in assay [2], the EC50 was no less than 15 µM.
Consider `CCCN(Cc1cc(O)c(N2CC(=O)NS2(=O)=O)c(F)c1)CC1CCC1` [EXAMPLE 78, 5-[4-[[cyclobutylmethyl(propyl)amino]methyl]-2-fluoro-6-hydroxy-phenyl]-1,1-dioxo-1,2,5-thiadiazolidin-3-one], for which the IC50 in assay [1] was found to be 0.806 µM. Moreover, the EC50 in assay [2] was no less than 15 µM.
As to `N#Cc1ccc(Cl)c(NCc2cc(O)c(N3CC(=O)NS3(=O)=O)c(F)c2)c1` [EXAMPLE 81, 4-chloro-3-[[3-fluoro-5-hydroxy-4-(1,1,4-trioxo-1,2,5-thiadiazolidin-2-yl)phenyl]methylamino]benzonitrile], the EC50 in assay [2] and in assay [3] was no less than 15 µM each time.
As for `O=C1CN(c2c(O)cc(CNc3cc(C4CC4)ccn3)cc2F)S(=O)(=O)N1` [EXAMPLE 82, 5-[4-[[(4-cyclopropyl-2-pyridyl)amino]methyl]-2-fluoro-6-hydroxy-phenyl]-1,1-dioxo-1,2,5-thiadiazolidin-3-one], the IC50 in assay [1] amounted to 0.01 µM. Moreover, in assay [2], the concentration for a half-maximal effect (EC50) is 0.197 µM.
Turning to `CN(C)CCNC(=O)c1cc(O)c(N2CC(=O)NS2(=O)=O)c(F)c1` [EXAMPLE 91, N-(2-(dimethylamino)ethyl)-4-(1,1-dioxido-4-oxo-1,2,5-thiadiazolidin-2-yl)-3-fluoro-5-hydroxybenzamide], the EC50 in assay [2] and in assay [3] was no less than 15 µM each time.
For the compound `O=C1CN(c2c(O)cc(C(=O)NC3CCNCC3)cc2F)S(=O)(=O)N1` [EXAMPLE 92, 4-(1,1-dioxido-4-oxo-1,2,5-thiadiazolidin-2-yl)-3-fluoro-5-hydroxy-N-(piperidin-4-yl)benzamide], the EC50 in assay [2] and in assay [3] was no less than 15 µM throughout.
Consider `O=C1CN(c2c(O)cc(C(=O)N[C@H]3CCCNC3)cc2F)S(=O)(=O)N1` [EXAMPLE 93, (S)-4-(1,1-dioxido-4-oxo-1,2,5-thiadiazolidin-2-yl)-3-fluoro-5-hydroxy-N-(piperidin-3-yl)benzamide], for which the EC50 in assay [2] and in assay [3] was no less than 15 µM each time.
In the case of `O=C1CN(c2c(O)cc(C(=O)N[C@@H]3CCCNC3)cc2F)S(=O)(=O)N1` [EXAMPLE 94, (R)-4-(1,1-dioxido-4-oxo-1,2,5-thiadiazolidin-2-yl)-3-fluoro-5-hydroxy-N-(piperidin-3-yl)benzamide], the EC50 in assay [2] and in assay [3] was no less than 15 µM each time.
On to `CN(C)[C@H]1CC[C@H](NC(=O)c2cc(O)c(N3CC(=O)NS3(=O)=O)c(F)c2)CC1` [EXAMPLE 96, N-((1r,4r)-4-(dimethylamino)cyclohexyl)-4-(1,1-dioxido-4-oxo-1,2,5-thiadiazolidin-2-yl)-3-fluoro-5-hydroxybenzamide], for which the EC50 in assay [2] and in assay [3] was no less than 15 µM in each case.
In the case of `CC1(C)CCC(NCc2ccc(O)c(N3CC(=O)NS3(=O)=O)c2F)CC1` [EXAMPLE 97, 5-(3-(((4,4-dimethylcyclohexyl)amino)methyl)-2-fluoro-6-hydroxyphenyl)-1,2,5-thiadiazolidin-3-one 1,1-dioxide], the EC50 in assay [2] and in assay [3] was no less than 15 µM each time.
With `O=C1CN(c2c(O)ccc(CN3CCOCC3)c2F)S(=O)(=O)N1` [EXAMPLE 99, 5-(2-fluoro-6-hydroxy-3-(morpholinomethyl)phenyl)-1,2,5-thiadiazolidin-3-one 1,1-dioxide], the EC50 in assay [2] and in assay [3] was no less than 15 µM in each case.
On to `O=C1CN(c2c(O)ccc(CNC3CCCCC3)c2F)S(=O)(=O)N1` [EXAMPLE 100, 5-(3-((cyclohexylamino)methyl)-2-fluoro-6-hydroxyphenyl)-1,2,5-thiadiazolidin-3-one 1,1-dioxide], for which the EC50 in assay [2] and in assay [3] was no less than 15 µM throughout.
Take `O=C1CN(c2c(O)ccc(CNC3CCOCC3)c2F)S(=O)(=O)N1` [EXAMPLE 101, 5-(2-fluoro-6-hydroxy-3-(((tetrahydro-2H-pyran-4-yl)amino)methyl)phenyl)-1,2,5-thiadiazolidin-3-one 1,1-dioxide]: the EC50 in assay [2] and in assay [3] was no less than 15 µM in each case.
Take `CN1CCN(Cc2ccc(O)c(N3CC(=O)NS3(=O)=O)c2F)CC1` [EXAMPLE 103, 5-(2-fluoro-6-hydroxy-3-((4-methylpiperazin-1-yl)methyl)phenyl)-1,2,5-thiadiazolidin-3-one 1,1-dioxide]: the concentration for a half-maximal effect (EC50) in assay [2] and in assay [3] was no less than 15 µM throughout.
As to `O=C1CN(c2c(O)ccc(C3CCNCC3)c2F)S(=O)(=O)N1` [EXAMPLE 105, 5-(2-fluoro-6-hydroxy-3-(piperidin-4-yl)phenyl)-1,2,5-thiadiazolidin-3-one 1,1-dioxide], the EC50 in assay [2] and in assay [3] was no less than 15 µM throughout.
